{"source": "patent US10912767B2", "about": "“Anthracycline prodrugs and methods of making and using the same” (THE REGENTS OF THE UNIVERSITY OF COLORADO, priority 2015, dated 2021)", "key": {"[1]": {"tested_on": "NCI/ADR-RES multi-drug resistant ovarian cancer cell line", "test": "Tumor cell growth inhibition, crystal violet (Example 2)", "type": "cell-based", "conditions": "for IC50: read-out: IC50", "description": "In order to investigate the photolysis of the drugs in a system amenable to cell culture use, a custom UV irradiation apparatus was constructed, consisting of 3 small blacklight fluorescent bulbs (Southern New England Ultraviolet Co., λmax=350 nm) set between two ring stands and suspended at a height of 11.5 cm. The bulbs' housing was reflective aluminum so as to direct as much UV irradiation as possible downward toward the plate. Upon installation in sterile cell culture hood, the power of the system was measured at approximately 6-7 mW using a Scientech laser power meter. Prior to experimentation, the hood and irradiation apparatus was sterilized with 254 nm germicidal UV irradiation overnight. Using this setup, 100 μM of 4,5-dimethoxy-2-nitrobenyl alcohol (DMNA), photodoxazolidine R═H, and glucose-PEG-photodoxazoldine were irradiated in individual wells of a 24-well plate. Initially, 50 μL of a DMSO stock was diluted with 950 μL of PBS and aliquots of 50 μL were removed at various times (0-180 min), mixing by pipetting each time. The timepoints were analyzed by HPLC (method 2) and plotted as fractional conversion versus time. […] Therefore, a second experiment was performed in which the PBS was replaced with 1:1 acetonitrile:water. With this system of 5% DMSO/47.5% acetonitrile/47.5% water, no visible precipitation was produced over the course of the reaction.\nThe ovarian carcinoma line NCl/ADR-RES (ADR) was grown in high-glucose Dulbecco's Modified Eagle Medium (DMEM) supplemented with 10% fetal bovine serum (FBS), 200 units/mL of penicillin and 200 μg/mL of streptomycin. The breast carcinoma line MDA-MB-231 was cultured in low-glucose DMEM with the same additives. Both lines were maintained in a humidified incubator with 5% CO2/95% air at 37° C. UV irradiations were performed with the apparatus described above.\nGrowth inhibition experiments were performed by seeding cells into 96-well plates or 24-well plates at densities of 1000-1500 cells per well or 8000 cells per well, respectively, and allowing the cells to adhere overnight. The media was then replaced with a range of aqueous concentrations of the drug in question and allowed to incubate at 37° C. with the cells for a span of time (Inc1) which ranged from 1 min to 48 hours. Irradiation was performed at room temperature with the plate's lid removed and ranged from 1 to 30 min. In some experiments, the drug solution was removed following Inc1 and irradiated in clean media or PBS. Following irradiation, the cells were placed back into the 37° C. incubator for a second period of incubation (Inc2), which varied between 1 min and 24 h, prior to replacement with fresh media. Plates which received no irradiation but identical treatment otherwise were done in parallel. The cells were then grown until the no-drug control wells reached approximately 80% confluence or 5 days, whichever was shorter. […] The cells were fixed with 5% formalin in PBS, stained with crystal violet, washed with tap water, and air-dried. The stain was resolubilized in 50% isopropyl alcohol, 50% H2O containing 2% (w/v) SDS. The staining density was read on a multiwell plate reader at 588-600 nm. Percentage cell density was calculated relative to the irradiated no-drug control wells, plotted as a function of drug concentration, and fit using non-linear least squared analysis with a variable-slope dose response model in GraphPad Prism 5.0 software.\nAlthough the introduction of a long-pass glass filter between the light source and the plate alleviated this effect to a small extent, a maximum irradiation time of 10 min was settled upon. […] Since a media change at that point would remove the cells as well, the re-adherence of the cell population was accomplished by the addition of a large volume (200 μL) of complete media following Inc2, and overnight incubation. Then, a full media change was done to remove the drug. […]"}, "[2]": {"test": "Quantum yield of photocleavage, He-Cd laser 325 nm, HPLC", "type": "physicochemical", "conditions": "325 nm", "experimental": "Initially, measurement of the quantum yield of photodoxazolidine R═H was done in a fully-absorbing solution of photoactive drug in a solution of 90% dimethylacetamide (DMA), 10% water in a 1×1 cm quartz cuvette equipped with a small magnetic stir bar. A stock of photodoxazolidine in DMA was diluted in 9:1 DMA:H2O to a final concentration of 373 μM in a final volume of 3.380 mL. […] The cuvette was placed into the path of an Omnichrome He-Cd laser (single-window power: 10.75 mW at 325 nm using a Scientech laser power meter). The solution was mixed by the stir bar, which was agitated with a magnetic stir plate placed vertically next to the cuvette. Aliquots of 20 μL were removed at times between 0 and 62 min of irradiation and those aliquots were analyzed by HPLC (method 2) for the ratio of dox to photodoxazolidine. The quantum yield was calculated from the ratio of molecules of doxorubicin (dox) formed to photons absorbed.\nTo allow for better comparison between the quantum yield of photocleavage of photodoxazolidine with the quantum yield for azido-PEG-photodoxazolidine, the measurement was retaken with 50% acetonitrile in water as a solvent. […] Photodoxazolidine (in DMF) was diluted with 30 mL of 50% acetonitrile to a final concentration of 104 μM. The solution was confirmed to be fully absorbing by monitoring the laser power exiting the cell throughout the course of the experiment, which never deviated from 0 mW. As above, the contents of the cell were mixed with a small magnetic stir bar. Aliquots of 50 μL were removed at various times and analyzed as described above. The calculated quantum yield in this solvent system was identical to that measured from the […] system used above.\nConcentration of azido-PEG-photodoxazolidine was determined via absorbance (λ=480 nm, ε=11500 M^−1 cm^−1). A sample ([…]) was dissolved in 1 mL of ACN and transferred to a cuvette. A 12.4 mW Omnichrome HeCd was used to irradiate the solution for 30 min at 325 nm. Aliquots of 10 μL were collected at different times and analyzed by HPLC to determine the % Dox in relation to that of azido-PEG-photodoxazolidine. In calculating quantum yield: power (without cuvette)=12.4 mW, (with cuvette)=10.7 mW, incident light=11.55 mW; energy=0.462 J, 7.55×1017 photons; t=40 sec when % Dox=9.2. Experiments were performed in triplicate.\nAzido-PEG-photodoxazolidine was irradiated with a 12.4 mW monochromatic laser at 325 nm for 30 min. Aliquots were collected throughout to determine the amount of azido-PEG-photodoxazolidine in relation to released doxorubicin, which was quantified by HPLC. […] The average of triplicate quantum yield experiments was 0.025. This value is in the low end of the quantum yield range, yet is beneficial because it signifies that UV must be applied for longer durations prior to release of the cytotoxic agent. This makes administration of this photo-activated prodrug safer, and its synthesis more practical."}}, "note": "Like-named read-outs stand apart in the source and are kept apart here."}
{"smiles": "COc1cc(COC(=O)N2COC3C(C)OC(OC4CC(O)(C(=O)CO)Cc5c(O)c6c(c(O)c54)C(=O)c4c(OC)cccc4C6=O)CC32)c([N+](=O)[O-])cc1OC", "note": "(stereo not shown) [Photodoxazolidine]", "values": [{"measurement": "fold drop of IC50 on near UV irradiation", "setting": "[1]; 10 min UV vs alone", "result": "more than 30 fold"}, {"measurement": "IC50", "setting": "[1]; +UV 10 min, near UV 350 nm", "result": 0.11, "unit": "µM"}, {"measurement": "times more toxic than doxorubicin alone", "setting": "[1]; prodrug alone", "result": "2-3 times"}, {"measurement": "IC50", "setting": "[1]; prodrug alone, no UV", "result": "3.5 ± 0.8", "unit": "µM"}, {"measurement": "IC50", "setting": "[1]; prodrug alone", "result": "~3.5", "unit": "µM"}, {"measurement": "quantum yield", "setting": "[2]; 50% acetonitrile in water, vs first solvent system", "result": "identical"}, {"measurement": "quantum yield", "setting": "[2]; 90% dimethylacetamide, 10% water", "result": 0.002}]}
